Measurements from patent US20230098403A1, “MAGNETIC RESONANCE IMAGING CONTRAST AGENT, PREPARATION METHOD AND USE THEREOF” (GUANGZHOU PINGLAN MEDICAL TECHNOLOGY CO., LTD., priority 2020, published 2023).

Experiments:
[1] = In vivo imaging in rats (3.0 T MRI); details: SD rats, 0.2 mmol/kg tail vein
Description: 1. Sixteen SD rats were divided into a KBR0826 contrast agent group (experimental group) and a gadoteric acid meglumine (Gd-DOTA) contrast agent group (control group), with 8 rats in each group, fasted for 12 hours (drank water freely).
2. 3% sodium pentobarbital (60 to 70 mg/kg) was weighed for intraperitoneal anesthesia.
3. The dosage of KBR0826 was 0.2 mmol/kg. SD rats were imaged in vivo with a 3.0 T MRI imager. Contrast agents were injected into the tail vein. The signal intensities (SI) of the heart, liver, brain parenchyma, muscle, and abdominal aorta in rats were measured before and after injection, and signal to noise ratio (SNR) was calculated and time-signal intensity curve was drawn to evaluate the imaging effect of the contrast agents.

QSG7701 hepatocyte line = experiment: Hepatocyte toxicity test (MTT); format: cell-based, human
Description: One or two days later, when the cell density meet the requirements of passage (the cell growth rate reaches 80-90%), the cells were washed 1 to 2 times with PBS, and then PBS was removed and 1 mL trypsin was added to completely cover the surface of the cells for 1 to 2 minutes, followed by observing under an inverted microscope. When more than 90% of the cells have become large and round and could be shaken gently to remove a little, complete medium (DMEM medium:FBS:antibiotic=100:10:1) was immediately added to stop digestion. The cells were blow and separated, transferred to a 15 mL centrifuge tube, which was centrifuged at 1000 rpm for 5 min at room temperature, then the supernatant was removed. The cells were transferred to a […] petri dish, 5 to 10 ml fresh complete medium was added for further culture. Culture medium was changed after 2-3 days or subcultured in a ratio of 1:2 and 1:3.
2) Cryopreservation: when the cells were in the logarithmic growth phase and the growth state was good, cryopreservation was selected and a cryopreservation solution (DMEM:FBS:DMSO=6:3:1) was prepared as above, the cells were collected after stopping digestion and centrifuging in a centrifuge tube. The cells were suspended in the cryopreservation solution, the cell concentration (lx 10^6/mL to 10×10^6/mL) were adjusted and then the cells were divided into cryopreservation tubes, the cell type, date, cryopreserved person, and passage times were recorded. The tubes were placed in a gradient freezer box in a −80° C. freezer and transferred to a liquid nitrogen tank for storage the next day.
3) Cell recovery: a cryovial containing QSG7701 was taken out from the liquid nitrogen tank and put in a 37° C. water bath for 1 to 2 minutes and shaken quickly to thaw. The thawed cell fluid was transferred to a 15 mL centrifuge tube, centrifuged at 1000 rpm for 5 min at room temperature, then the supernatant was removed, and 5 to 10 mL fresh complete culture medium was added into it, the cell type, date, and the name of the culture person were recorded, the cells were cultured in a 37° C. incubator with 5% CO2. […]
4) Finally, the 96-well plate was taken out, the medium was removed, and 100 μl DMSO was added to the plate, shaken horizontally and mixed for 2-3 minutes to fully dissolve the crystals, and the OD value was read at the detection line of 595 nm with a microplate reader.
Origin 9.0 software was used for data mapping, and measurement data were expressed as mean±standard deviation (±sd); SPSS14.0 statistical software was used for data statistics, and univariate analysis was used.

O=C([O-])CN(CP(=O)([O-])O)C1CCCCC1N(CC(=O)[O-])CP(=O)([O-])O.[Mn+2].[Na+].[Na+] (stereo not shown) [KBR0826]
excretion seen by imaging [1]: could be excreted through the kidneys and intestines
liver enhancement [1]: obvious and continuous
passage through the blood-brain barrier [1]: could not pass through the normal blood-brain barrier
survival rate of the QSG7701 hepatocyte line (QSG7701 hepatocyte line; 0.02 mmol/L, 0.1 mmol/L or 0.5 mmol/L, each detection time point (6 h, 12 h, 24 h, 48 h), MTT, OD 595 nm): does not decrease significantly
survival rate of the QSG7701 hepatocyte line (QSG7701 hepatocyte line; 2.5 mmol/L, 24 h and 48 h, p<0.05): decrease significantly
survival rate of the QSG7701 hepatocyte line (QSG7701 hepatocyte line; 12.5 mmol/L, at 12 h, p<0.05): decreases significantly
inhibitory effect on the proliferation of QSG7701 hepatocyte line (QSG7701 hepatocyte line; within 24 hours, 25 times of the clinical dose (2.5 mmol/L)): non-obvious inhibitory effect
